This note sets out measurements from patent publication US20090208432A1, “AH Receptor Antagonists” (SYMRISE GmbH & Co., KG, priority 2006, published 2009).

This data set deals with T1, AhR (Homo sapiens, UniProt P35869).
T1 construct: endogenous in cells; host or cells: HaCaT keratinocytes
T1 sequence (P35869 11-848): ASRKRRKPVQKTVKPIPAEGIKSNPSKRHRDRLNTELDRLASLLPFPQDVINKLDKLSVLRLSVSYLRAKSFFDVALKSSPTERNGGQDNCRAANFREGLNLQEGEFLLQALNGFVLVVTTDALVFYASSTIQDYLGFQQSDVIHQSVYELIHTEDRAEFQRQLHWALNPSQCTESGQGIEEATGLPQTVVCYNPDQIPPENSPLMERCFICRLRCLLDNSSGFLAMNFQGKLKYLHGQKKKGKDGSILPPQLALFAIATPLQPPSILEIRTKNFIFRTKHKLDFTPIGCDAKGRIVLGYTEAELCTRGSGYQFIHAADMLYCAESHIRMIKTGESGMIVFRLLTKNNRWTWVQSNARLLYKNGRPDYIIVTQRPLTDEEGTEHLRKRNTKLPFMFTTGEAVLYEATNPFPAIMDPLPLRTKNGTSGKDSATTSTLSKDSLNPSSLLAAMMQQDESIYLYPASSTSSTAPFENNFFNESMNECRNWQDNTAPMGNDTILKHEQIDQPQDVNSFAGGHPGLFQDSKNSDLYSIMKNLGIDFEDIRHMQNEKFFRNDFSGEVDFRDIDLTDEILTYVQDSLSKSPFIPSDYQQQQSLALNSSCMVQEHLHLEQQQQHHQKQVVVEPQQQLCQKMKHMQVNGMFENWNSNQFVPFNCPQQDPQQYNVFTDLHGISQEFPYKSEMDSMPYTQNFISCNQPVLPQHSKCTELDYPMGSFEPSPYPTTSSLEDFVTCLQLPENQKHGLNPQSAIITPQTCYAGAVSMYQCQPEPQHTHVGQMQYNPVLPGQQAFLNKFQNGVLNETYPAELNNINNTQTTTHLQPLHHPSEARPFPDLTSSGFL
In words: Quantification of AhR inhibition via determination of CYP1A1-mRNA in UVB-irradiated HaCaT keratinocytes. In kind it is cell-based. As to conditions: HaCaT cells, 100 J/m^2 UVB, pretreated 1 h before irradiation, RNA after 4 h, relative to control (PBS, 0.1% DMSO, UVB-irradiated). The text has this:
HaCaT keratinocytes were cultivated in DMEM containing 10% of foetal calf serum. The cells were irradiated with UVB in PBS (phosphate buffered saline). For irradiation with UVB we used a TL20W/12RS lamp, which contains four parallel tubes (Philips, Eindhoven, The Netherlands) and emits the bulk of its energy in the UVB range (290-320 nm). The emission peak of the lamp is at 310 nm. Control cells were subjected to the same treatment but were not irradiated. To inhibit the AhR, the cells were treated with the test substances 1 h prior to irradiation.
HaCaT cells were irradiated with 100 J/m^2 of UVB. Some cells were pretreated with the test substances 1 h prior to irradiation. […] The PCR mix was composed of 1/10 by volume of QuantiTect® SYBR Green PCR Master Mix (Qiagen, Hilden, Germany), 0.5 μmol/l of the appropriate primer, 2 μl of cDNA and DEPC-treated (diethyl pyrocarbonate-treated) H2O in a final volume of 20 μl. […] The PCR conditions were as follows: 40 cycles of 15 sec at 94° C. for denaturing, 25 sec at 60° C. for primer attachment, 30 sec at 72° C. for extension and 2 sec at 72° C. for fluorescence measurement. […] The PCR products were quantified via a fragment-specific standard curve using LightCycler software 3. […]
Quantification of AhR Inhibition Via Determination of CYP1A1-mRNA

`Oc1ccc2c(c1)OC1c3cc(O)c(O)cc3COC1C2O` (centres unmarked) [Peltogynol]: the “CYP1A1 inhibition in presence of UVB light” value (0.0001 wt. %) stood at 60%.

With `Oc1ccc2c(c1)OC[C@H]1c3cc4c(cc3O[C@@H]21)OCO4` [Maackiain], the inhibition at 350 µM (0.35 mM, read-out: CYP1A1 inhibition in presence of UVB light) amounted to 60%.

As a reminder, the inhibition is how much of the control response was suppressed.
